Measured values taken from patent publication US10961231B2, “NTCP inhibitors” (National Institute of Biological Sciences, Beijing, priority 2018, dated 2021).

The molecules below were run against T1, NTCP (Homo sapiens, UniProt Q14973) (assay: [3H]-TCA uptake assay (NTCP inhibition)). Conditions: IC50, given as a range, marked * (asterisk not explained).
T1 sequence (Q14973 1-349): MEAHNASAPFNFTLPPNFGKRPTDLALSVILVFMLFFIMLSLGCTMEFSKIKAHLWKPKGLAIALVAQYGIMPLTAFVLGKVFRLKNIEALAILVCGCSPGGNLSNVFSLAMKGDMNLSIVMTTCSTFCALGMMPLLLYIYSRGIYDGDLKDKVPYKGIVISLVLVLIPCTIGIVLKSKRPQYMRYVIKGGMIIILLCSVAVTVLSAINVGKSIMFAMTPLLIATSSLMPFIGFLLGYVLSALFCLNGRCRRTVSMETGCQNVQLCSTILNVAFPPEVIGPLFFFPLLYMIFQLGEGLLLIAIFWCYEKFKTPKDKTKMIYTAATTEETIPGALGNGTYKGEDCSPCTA
Assay type: cell-based
Method in brief: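 PTH and HepG2-NTCP cells kept 24 h in PMM to induce NTCP, then exposed 2 h to test compounds or DMSO. Uptake of 1 μM [3H]-taurocholate in Na+ Ringer's buffer (145 mM Na) ran 15 min at 37° C. Cells washed, lysed in 1% Triton X-100, and radioactivity counted by liquid scintillation.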

Compound	IC50
CCC1NC(=O)C(C2OC(Oc3cccc(OCC4CC4)c3)CC2C)N(C)C(=O)C(C(C)C)N(C)C(=O)C(CC(C)C)N(C)C(=O)C(CC(C)C)N(C)C(=O)C(C)NC(=O)C(C)NC(=O)C(CC(C)C)N(C)C(=O)C(C(C)C)NC(=O)C(CC(C)C)N(C)C(=O)CN(C)C1=O (stereo not drawn) [Compound 32A-o]	1000 to 100000 nM
CCC1NC(=O)C(C2OC(Oc3cccc(OCC4CCOCC4)c3)CC2C)N(C)C(=O)C(C(C)C)N(C)C(=O)C(CC(C)C)N(C)C(=O)C(CC(C)C)N(C)C(=O)C(C)NC(=O)C(C)NC(=O)C(CC(C)C)N(C)C(=O)C(C(C)C)NC(=O)C(CC(C)C)N(C)C(=O)CN(C)C1=O (stereo not drawn) [Compound 33A-o]	1000 to 100000 nM
CCC1NC(=O)C(C2OC(Oc3cccc(OC(C)c4ccccc4)c3)CC2C)N(C)C(=O)C(C(C)C)N(C)C(=O)C(CC(C)C)N(C)C(=O)C(CC(C)C)N(C)C(=O)C(C)NC(=O)C(C)NC(=O)C(CC(C)C)N(C)C(=O)C(C(C)C)NC(=O)C(CC(C)C)N(C)C(=O)CN(C)C1=O (stereo not drawn) [Compound 34A-o]	1000 to 100000 nM
CCC1NC(=O)C(C2OC(Oc3cccc(OCCc4ccccc4)c3)CC2C)N(C)C(=O)C(C(C)C)N(C)C(=O)C(CC(C)C)N(C)C(=O)C(CC(C)C)N(C)C(=O)C(C)NC(=O)C(C)NC(=O)C(CC(C)C)N(C)C(=O)C(C(C)C)NC(=O)C(CC(C)C)N(C)C(=O)CN(C)C1=O (stereo not drawn) [Compound 35A-o]	1000 to 100000 nM
CCC1NC(=O)C(C2OC(Oc3c(OC)cccc3OC)CC2C)N(C)C(=O)C(C(C)C)N(C)C(=O)C(CC(C)C)N(C)C(=O)C(CC(C)C)N(C)C(=O)C(C)NC(=O)C(C)NC(=O)C(CC(C)C)N(C)C(=O)C(C(C)C)NC(=O)C(CC(C)C)N(C)C(=O)CN(C)C1=O (stereo not drawn) [Compound 36A-o]	1000 to 100000 nM
CCC1NC(=O)C(C2OC(Oc3ccc(OC)c(OC)c3)CC2C)N(C)C(=O)C(C(C)C)N(C)C(=O)C(CC(C)C)N(C)C(=O)C(CC(C)C)N(C)C(=O)C(C)NC(=O)C(C)NC(=O)C(CC(C)C)N(C)C(=O)C(C(C)C)NC(=O)C(CC(C)C)N(C)C(=O)CN(C)C1=O (stereo not drawn) [Compound 37A-o]	1000 to 100000 nM
CCC1NC(=O)C(C2OC(Oc3cc(OC)cc(OC)c3)CC2C)N(C)C(=O)C(C(C)C)N(C)C(=O)C(CC(C)C)N(C)C(=O)C(CC(C)C)N(C)C(=O)C(C)NC(=O)C(C)NC(=O)C(CC(C)C)N(C)C(=O)C(C(C)C)NC(=O)C(CC(C)C)N(C)C(=O)CN(C)C1=O [Compound 38A-o, [2-((2R,3R)-5-(3,5-dimethoxphenoxy)-3-methyltetrahydrofuran-2-yl)-2-(methylamino)acetic acid]^1-cyclosporin A]	1000 to 100000 nM
CCC1NC(=O)C(C2OC(Oc3ccc(Cl)c(OC)c3)CC2C)N(C)C(=O)C(C(C)C)N(C)C(=O)C(CC(C)C)N(C)C(=O)C(CC(C)C)N(C)C(=O)C(C)NC(=O)C(C)NC(=O)C(CC(C)C)N(C)C(=O)C(C(C)C)NC(=O)C(CC(C)C)N(C)C(=O)CN(C)C1=O (stereo not drawn) [Compound 40A-o]	1000 to 100000 nM
CCOc1cc(OC2CC(C)C(C3C(=O)NC(CC)C(=O)N(C)CC(=O)N(C)C(CC(C)C)C(=O)NC(C(C)C)C(=O)N(C)C(CC(C)C)C(=O)NC(C)C(=O)NC(C)C(=O)N(C)C(CC(C)C)C(=O)N(C)C(CC(C)C)C(=O)N(C)C(C(C)C)C(=O)N3C)O2)ccc1Cl (stereo not drawn) [Compound 41A-o]	1000 to 100000 nM
CCCOc1cc(OC2CC(C)C(C3C(=O)NC(CC)C(=O)N(C)CC(=O)N(C)C(CC(C)C)C(=O)NC(C(C)C)C(=O)N(C)C(CC(C)C)C(=O)NC(C)C(=O)NC(C)C(=O)N(C)C(CC(C)C)C(=O)N(C)C(CC(C)C)C(=O)N(C)C(C(C)C)C(=O)N3C)O2)ccc1Cl (stereo not drawn) [Compound 42A-o]	1000 to 100000 nM

Same assay, conditions: IC50, given as a range; assay not given

Compound	IC50
CCC1NC(=O)C(C2OC(Sc3c(OC)cccc3OC)CC2C)N(C)C(=O)C(C(C)C)N(C)C(=O)C(CC(C)C)N(C)C(=O)C(CC(C)C)N(C)C(=O)C(C)NC(=O)C(C)NC(=O)C(CC(C)C)N(C)C(=O)C(C(C)C)NC(=O)C(CC(C)C)N(C)C(=O)CN(C)C1=O [Compound 36A, [2-((2R,3R)-5-(2,6-dimethoxyphenylthio)-3-methyltetrahydrofuran-2-yl)-2-(methylamino)acetic acid]^1-cyclosporin A]	1000 to 10000 nM

Same assay, conditions: given as a range; assay not given

Compound	IC50
CCC1NC(=O)C(C2OC(Sc3cccc(OCC4CC4)c3)CC2C)N(C)C(=O)C(C(C)C)N(C)C(=O)C(CC(C)C)N(C)C(=O)C(CC(C)C)N(C)C(=O)C(C)NC(=O)C(C)NC(=O)C(CC(C)C)N(C)C(=O)C(C(C)C)NC(=O)C(CC(C)C)N(C)C(=O)CN(C)C1=O [Compound 32A, [2-((2R,3R)-5-(3-(cyclopropylmethoxy)phenylthio)-3-methyltetrahydrofuran-2-yl)-2-(methylamino)acetic acid]^1-cyclosporin A]	1 to 1000 nM
CCC1NC(=O)C(C2OC(Sc3cccc(OCC4CCOCC4)c3)CC2C)N(C)C(=O)C(C(C)C)N(C)C(=O)C(CC(C)C)N(C)C(=O)C(CC(C)C)N(C)C(=O)C(C)NC(=O)C(C)NC(=O)C(CC(C)C)N(C)C(=O)C(C(C)C)NC(=O)C(CC(C)C)N(C)C(=O)CN(C)C1=O [Compound 33A, [2-((2R,3R)-3-methyl-5-(3-((tetrahydro-2H-pyran-4-yl)methoxy)phenylthio)tetrahydrofuran-2-yl)-2-(methylamino)acetic acid]^1-cyclosporin A]	1 to 1000 nM
CCC1NC(=O)C(C2OC(Sc3cccc(OC(C)c4ccccc4)c3)CC2C)N(C)C(=O)C(C(C)C)N(C)C(=O)C(CC(C)C)N(C)C(=O)C(CC(C)C)N(C)C(=O)C(C)NC(=O)C(C)NC(=O)C(CC(C)C)N(C)C(=O)C(C(C)C)NC(=O)C(CC(C)C)N(C)C(=O)CN(C)C1=O [Compound 34A, [2-((2R,3R)-3-methyl-5-(3-(1-phenylethoxy)phenylthio)tetrahydrofuran-2-yl)-2-(methylamino)acetic acid]^1-cyclosporin A]	1 to 1000 nM
CCC1NC(=O)C(C2OC(Sc3cccc(OCCc4ccccc4)c3)CC2C)N(C)C(=O)C(C(C)C)N(C)C(=O)C(CC(C)C)N(C)C(=O)C(CC(C)C)N(C)C(=O)C(C)NC(=O)C(C)NC(=O)C(CC(C)C)N(C)C(=O)C(C(C)C)NC(=O)C(CC(C)C)N(C)C(=O)CN(C)C1=O [Compound 35A, [2-((2R,3R)-3-methyl-5-(3-phenethoxyphenylthio)tetrahydrofuran-2-yl)-2-(methylamino)acetic acid]^1-cyclosporin A]	1 to 1000 nM
CCC1NC(=O)C(C2OC(Sc3ccc(OC)c(OC)c3)CC2C)N(C)C(=O)C(C(C)C)N(C)C(=O)C(CC(C)C)N(C)C(=O)C(CC(C)C)N(C)C(=O)C(C)NC(=O)C(C)NC(=O)C(CC(C)C)N(C)C(=O)C(C(C)C)NC(=O)C(CC(C)C)N(C)C(=O)CN(C)C1=O [Compound 37A, [2-((2R,3R)-5-(3,4-dimethoxyphenylthio)-3-methyltetrahydrofuran-2-yl)-2-(methylamino)acetic acid]^1-cyclosporin A]	1 to 1000 nM
CCC1NC(=O)C(C2OC(Sc3cc(OC)cc(OC)c3)CC2C)N(C)C(=O)C(C(C)C)N(C)C(=O)C(CC(C)C)N(C)C(=O)C(CC(C)C)N(C)C(=O)C(C)NC(=O)C(C)NC(=O)C(CC(C)C)N(C)C(=O)C(C(C)C)NC(=O)C(CC(C)C)N(C)C(=O)CN(C)C1=O [Compound 38A, [2-((2R,3R)-5-(3,5-dimethoxyphenylthio)-3-methyltetrahydrofuran-2-yl)-2-(methylamino)acetic acid]^1-cyclosporin A]	1 to 1000 nM
CCOc1cc(OCC)cc(SC2CC(C)C(C3C(=O)NC(CC)C(=O)N(C)CC(=O)N(C)C(CC(C)C)C(=O)NC(C(C)C)C(=O)N(C)C(CC(C)C)C(=O)NC(C)C(=O)NC(C)C(=O)N(C)C(CC(C)C)C(=O)N(C)C(CC(C)C)C(=O)N(C)C(C(C)C)C(=O)N3C)O2)c1 [Compound 39A, [2-((2R,3R)-5-(3,5-diethoxyphenylthio)-3-methyltetrahydrofuran-2-yl)-2-(methylamino)acetic acid]^1-cyclosporin A]	1 to 1000 nM
CCC1NC(=O)C(C2OC(Sc3ccc(Cl)c(OC)c3)CC2C)N(C)C(=O)C(C(C)C)N(C)C(=O)C(CC(C)C)N(C)C(=O)C(CC(C)C)N(C)C(=O)C(C)NC(=O)C(C)NC(=O)C(CC(C)C)N(C)C(=O)C(C(C)C)NC(=O)C(CC(C)C)N(C)C(=O)CN(C)C1=O [Compound 40A, [2-((2R,3R)-5-(4-chloro-3-methoxyphenylthio)-3-methyltetrahydrofuran-2-yl)-2-(methylamino)acetic acid]^1-cyclosporin A]	1 to 1000 nM
CCOc1cc(SC2CC(C)C(C3C(=O)NC(CC)C(=O)N(C)CC(=O)N(C)C(CC(C)C)C(=O)NC(C(C)C)C(=O)N(C)C(CC(C)C)C(=O)NC(C)C(=O)NC(C)C(=O)N(C)C(CC(C)C)C(=O)N(C)C(CC(C)C)C(=O)N(C)C(C(C)C)C(=O)N3C)O2)ccc1Cl [Compound 41A, [2-((2R,3R)-5-(4-chloro-3-ethoxyphenylthio)-3-methyltetrahydrofuran-2-yl)-2-(methylamino)acetic acid]^1-cyclosporin A]	1 to 1000 nM
CCCOc1cc(SC2CC(C)C(C3C(=O)NC(CC)C(=O)N(C)CC(=O)N(C)C(CC(C)C)C(=O)NC(C(C)C)C(=O)N(C)C(CC(C)C)C(=O)NC(C)C(=O)NC(C)C(=O)N(C)C(CC(C)C)C(=O)N(C)C(CC(C)C)C(=O)N(C)C(C(C)C)C(=O)N3C)O2)ccc1Cl [Compound 42A, [2-((2R,3R)-5-(4-chloro-3-propoxyphenylthio)-3-methyltetrahydrofuran-2-yl)-2-(methylamino)acetic acid]^1-cyclosporin A]	1 to 1000 nM
